Data as given in patent US20240425517A1, “NOVEL COMPOUND FOR DEGRADATION OF TARGET PROTEIN OR POLYPEPTIDE BY POLYUBIQUITINATION” (PRAZER THERAPEUTICS INC., priority 2021, published 2024).

Target: T1, BRD4 proteins (Homo sapiens, UniProt O60885)
T1 construct: endogenous in cells; host or cells: MM.1S
Assay: Degradation of BRD4 protein in MM.1S cell lines (Western blot densitometry)
Assay type: cell-based
Conditions: MM.1S cells, 10 μM, 24 hours
Protocol: To confirm that the compounds (BRD4 degraders) of Preparation Examples I′ to IV′ reduce the amount of BRD4 proteins, experiments were performed using MM.1S cell lines, which are B cells derived from the blood of multiple myeloma patients.
Specifically, the MM.1S cells were cultured in RPMI-1640 medium supplemented with 10% fetal bovine serum and Penicillin/Streptomycin (100 U/mL), transferred to a 6-well plate, and after 24 hours, the BRD4 degraders were diluted in the culture medium and the cells were treated with 10 μM each. After treatment, the cells were incubated in a C02 incubator for 24 hours. Through protein immunoblotting (Western Blot), the degrading capacity of each compound against BRD4 proteins in cells was confirmed. After cell culture was completed according to the experimental conditions, the cells were collected and centrifuged at 1,800 rpm for 3 minutes. The cells in the precipitate were lysed with RIPA (25 mM Tris-HCl pH 7.6, 150 mM NaCl, 1% NP-40, 1% sodium deoxycholate, 0.1% SDS, 1× Protease Inhibitor Cocktail), 5× sample buffer was added, and then heated at 100° C. for 15 minutes. The prepared sample was electrophoresed with sodium dodecyl sulfate poly acrylamide gel electrophoresis (SDS-PAGE), and then the proteins in the gel were transferred to a PVDF membrane using Trans-Blot Turbo. The membrane was treated with a 5% bovine serum albumin (BSA) solution and blocked at room temperature for 2 hours, and then BRD4 and R-actin antibodies were diluted in the 5% BSA solution to react with the membrane at 4° C. overnight. After washed with PBST (0.5% Tween20) 5 times, horse radish peroxidase (HRP)-conjugated secondary antibodies were diluted in PBST to react at room temperature for 2 hours, and then washed again with a PBST solution 5 times. After enzyme-substrate reaction was carried out using a HRP substrate, a signal was measured with chemi-doc equipment, and the densitometry of a band corresponding to the BRD4 protein detected in the Preparation Example Compounds was quantitatively analyzed. The case when the degrading capacity of each BRD4 degrader was reduced by less than 40% is indicated as +, the case when the degrading capacity was reduced by 40% to 70% (exclusive of 70) is indicated as ++, the case when the degrading capacity was reduced by 70% or more is indicated as +++ in Tables 16 to 19 below. As shown in the following Tables, it was confirmed that the compounds of Preparation Examples I′ to IV′ according to the present invention have excellent degrading capacity.

SMILES	BRD4 degrading capacity (%)
Cc1sc2c(c1C)C(c1ccc(Cl)cc1)=N[C@@H](CC(=O)NCCCCC(=O)Nc1cccc(C#CCN)c1)c1nnc(C)n1-2.Cl [4-164′, (S)—N-(3-(3-aminoprop-1-yn-1-yl)phenyl)-5-(2-(4-(4-chlorophenyl)-2,3,9-trimethyl-6H-thieno[3,2-f][1,2,4]triazolo[4,3-a][1,4]diazepin-6-yl)acetamido)pentanamide hydrochloride]	++ (the degrading capacity was reduced by 40% to 70% (exclusive of 70))
Cc1sc2c(c1C)C(c1ccc(Cl)cc1)=N[C@@H](CC(=O)NCCCCCC(=O)Nc1ccc(C#CCN)cc1)c1nnc(C)n1-2.Cl [4-165′, (S)—N-(4-(3-aminoprop-1-yn-1-yl)phenyl)-6-(2-(4-(4-chlorophenyl)-2,3,9-trimethyl-6H-thieno[3,2-f][1,2,4]triazolo[4,3-a][1,4]diazepin-6-yl)acetamido)hexanamide hydrochloride]	+++ (the degrading capacity was reduced by 70% or more)
Cc1sc2c(c1C)C(c1ccc(Cl)cc1)=N[C@@H](CC(=O)NCCCNC(=O)c1ccc(C#CCN)o1)c1nnc(C)n1-2.Cl [4-166′]	+++ (the degrading capacity was reduced by 70% or more)
Cc1sc2c(c1C)C(c1ccc(Cl)cc1)=N[C@@H](CC(=O)NCCCCCNC(=O)c1ccc(C#CCN)o1)c1nnc(C)n1-2.Cl [4-167′, (S)-5-(3-aminoprop-1-yn-1-yl)-N-(5-(2-(4-(4-chlorophenyl)-2,3,9-trimethyl-6H-thieno[3,2-f][1,2,4]triazolo[4,3-a][1,4]diazepin-6-yl)acetamido)pentyl)furan-2-carboxamide hydrochloride]	++ (the degrading capacity was reduced by 40% to 70% (exclusive of 70))
Cc1sc2c(c1C)C(c1ccc(Cl)cc1)=N[C@@H](CC(=O)NCC#Cc1ccc(C#CCN)nc1)c1nnc(C)n1-2.Cl [4-179′, (S)—N-(3-(6-(3-aminoprop-1-yn-1-yl)pyridin-3-yl)prop-2-yn-1-yl)-2-(4-(4-chlorophenyl)-2,3,9-trimethyl-6H-thieno[3,2-f][1,2,4]triazolo[4,3-a][1,4]diazepin-6-yl)acetamide hydrochloride]	+ (the degrading capacity of each BRD4 degrader was reduced by less than 40%)
Cc1sc2c(c1C)C(c1ccc(Cl)cc1)=N[C@@H](CC(=O)NCC#Cc1ccc(C#CCON)s1)c1nnc(C)n1-2.Cl [4-223′, (S)—N-(3-(5-(3-(aminooxy)prop-1-yn-1-yl)thiophen-2-yl)prop-2-yn-1-yl)-2-(4-(4-chlorophenyl)-2,3,9-trimethyl-6H-thieno[3,2-f][1,2,4]triazolo[4,3-a][1,4]diazepin-6-yl)acetamide hydrochloride]	++ (the degrading capacity was reduced by 40% to 70% (exclusive of 70))
Cc1sc2c(c1C)C(c1ccc(Cl)cc1)=N[C@@H](CC(=O)NCCCCCCCCCNC(=O)c1ccc(C#CCN)o1)c1nnc(C)n1-2.Cl [4-225′, (S)-5-(3-aminoprop-1-yn-1-yl)-N-(9-(2-(4-(4-chlorophenyl)-2,3,9-trimethyl-6H-thieno[3,2-f][1,2,4]triazolo[4,3-a][1,4]diazepin-6-yl)acetamido)nonyl)furan-2-carboxamide hydrochloride]	+++ (the degrading capacity was reduced by 70% or more)
Cc1sc2c(c1C)C(c1ccc(Cl)cc1)=N[C@@H](CC(=O)N1CCN(c3ccc(C#CCN)cc3)CC1)c1nnc(C)n1-2.Cl [4-226′, (S)-1-(4-(4-(3-aminoprop-1-yn-1-yl)phenyl)piperazin-1-yl)-2-(4-(4-chlorophenyl)-2,3,9-trimethyl-6H-thieno[3,2-f][1,2,4]triazolo[4,3-a][1,4]diazepin-6-yl)ethan-1-one hydrochloride]	+++ (the degrading capacity was reduced by 70% or more)
Cc1sc2c(c1C)C(c1ccc(Cl)cc1)=N[C@@H](CC(=O)N1CCN(C(=O)c3ccc(C#CCN)o3)CC1)c1nnc(C)n1-2.Cl [4-227′, (S)-1-(4-(5-(3-aminoprop-1-yn-1-yl)furan-2-carbonyl)piperazin-1-yl)-2-(4-(4-chlorophenyl)-2,3,9-trimethyl-6H-thieno[3,2-f][1,2,4]triazolo[4,3-a][1,4]diazepin-6-yl)ethan-1-one hydrochloride]	++ (the degrading capacity was reduced by 40% to 70% (exclusive of 70))
COC(=O)c1ccc(NC(=O)CCCNC(=O)C[C@@H]2N=C(c3ccc(Cl)cc3)c3c(sc(C)c3C)-n3c(C)nnc32)cc1C#CCN.Cl [4-228′]	+++ (the degrading capacity was reduced by 70% or more)
Cc1sc2c(c1C)C(c1ccc(Cl)cc1)=N[C@@H](CC(=O)NCCCCCCCCNC(=O)c1ccc(C#CCN)o1)c1nnc(C)n1-2.Cl [4-235′]	++ (the degrading capacity was reduced by 40% to 70% (exclusive of 70))
CCOC(=O)c1ccc(NC(=O)CCCNC(=O)C[C@@H]2N=C(c3ccc(Cl)cc3)c3c(sc(C)c3C)-n3c(C)nnc32)cc1C#CCN.Cl [5-1′, ethyl (S)-2-(3-aminoprop-1-yn-1-yl)-4-(4-(2-(4-(4-chlorophenyl)-2,3,9-trimethyl-6H-thieno[3,2-f][1,2,4]triazolo[4,3-a][1,4]diazepin-6-yl)acetamido)butanamido)benzoate hydrochloride]	+++ (the degrading capacity was reduced by 70% or more)
Cc1sc2c(c1C)C(c1ccc(Cl)cc1)=N[C@@H](CC(=O)NCCCC(=O)Nc1ccc(C(=O)OC(C)C)c(C#CCN)c1)c1nnc(C)n1-2.Cl [5-2′, isopropyl (S)-2-(3-aminoprop-1-yn-1-yl)-4-(4-(2-(4-(4-chlorophenyl)-2,3,9-trimethyl-6H-thieno[3,2-f][1,2,4]triazolo[4,3-a][1,4]diazepin-6-yl)acetamido)butanamido)benzoate hydrochloride]	++ (the degrading capacity was reduced by 40% to 70% (exclusive of 70))
COC(=O)c1ccc(NC(=O)CCNC(=O)C[C@@H]2N=C(c3ccc(Cl)cc3)c3c(sc(C)c3C)-n3c(C)nnc32)cc1C#CCN.Cl [5-4′, methyl (S)-2-(3-aminoprop-1-yn-1-yl)-4-(3-(2-(4-(4-chlorophenyl)-2,3,9-trimethyl-6H-thieno[3,2-f][1,2,4]triazolo[4,3-a][1,4]diazepin-6-yl)acetamido)propanamido)benzoate hydrochloride]	++ (the degrading capacity was reduced by 40% to 70% (exclusive of 70))
COC(=O)c1ccc(NC(=O)CCCCNC(=O)C[C@@H]2N=C(c3ccc(Cl)cc3)c3c(sc(C)c3C)-n3c(C)nnc32)cc1C#CCN.Cl [5-5′, methyl (S)-2-(3-aminoprop-1-yn-1-yl)-4-(5-(2-(4-(4-chlorophenyl)-2,3,9-trimethyl-6H-thieno[3,2-f][1,2,4]triazolo[4,3-a][1,4]diazepin-6-yl)acetamido)pentanamido)benzoate hydrochloride]	++ (the degrading capacity was reduced by 40% to 70% (exclusive of 70))
COC(=O)c1ccc(NC(=O)CCCCCNC(=O)C[C@@H]2N=C(c3ccc(Cl)cc3)c3c(sc(C)c3C)-n3c(C)nnc32)cc1C#CCN.Cl [5-6′, methyl (S)-2-(3-aminoprop-1-yn-1-yl)-4-(6-(2-(4-(4-chlorophenyl)-2,3,9-trimethyl-6H-thieno[3,2-f][1,2,4]triazolo[4,3-a][1,4]diazepin-6-yl)acetamido)hexanamido)benzoate hydrochloride]	++ (the degrading capacity was reduced by 40% to 70% (exclusive of 70))
COC(=O)c1ccc(N2CCN(C(=O)C[C@@H]3N=C(c4ccc(Cl)cc4)c4c(sc(C)c4C)-n4c(C)nnc43)CC2)cc1C#CCN.Cl [5-7′, methyl (S)-2-(3-aminoprop-1-yn-1-yl)-4-(4-(2-(4-(4-chlorophenyl)-2,3,9-trimethyl-6H-thieno[3,2-f][1,2,4]triazolo[4,3-a][1,4]diazepin-6-yl)acetyl)piperazin-1-yl)benzoate hydrochloride]	+ (the degrading capacity of each BRD4 degrader was reduced by less than 40%)
Cc1sc2c(c1C)C(c1ccc(Cl)cc1)=N[C@@H](CC(=O)NCCCC(=O)Nc1ccc(C#CCN)c(CO)c1)c1nnc(C)n1-2.Cl [5-8′, (S)—N-(4-(3-aminoprop-1-yn-1-yl)-3-(hydroxymethyl)phenyl)-4-(2-(4-(4-chlorophenyl)-2,3,9-trimethyl-6H-thieno[3,2-f][1,2,4]triazolo[4,3-a][1,4]diazepin-6-yl)acetamido)butanamide hydrochloride]	++ (the degrading capacity was reduced by 40% to 70% (exclusive of 70))
